PubChem BioAssay (NCI)
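Where inhibition never reached the appropriate level, the endpoint shown equals the highest concentration tested. Otherwise, values were interpolated linearly from a five-concentration, 48-hour dose response in 96-well plates. Definition used: TGI = concentration required for complete inhibition of growth.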

Key:
Experiment in all cases: growth of human tumour cells (NCI), 48 h
OVCAR-8 ovarian = test system: OVCAR-8 ovarian
CAKI-1 renal = test system: CAKI-1 renal
HOP-62 NSCLC = test system: HOP-62 NSCLC
A549 NSCLC = test system: A549 NSCLC
SN12C renal = test system: SN12C renal
RXF-631 renal = test system: RXF-631 renal
NCI-H522 lung = test system: NCI-H522 lung
UACC-62 melanoma = test system: UACC-62 melanoma
IGROV1 ovarian = test system: IGROV1 ovarian
NCI-H23 lung = test system: NCI-H23 lung
SW-620 colon = test system: SW-620 colon
KM12 colon = test system: KM12 colon
DLD-1 colon = test system: DLD-1 colon
MALME-3M melanoma = test system: MALME-3M melanoma
UACC-257 melanoma = test system: UACC-257 melanoma
HOP-18 NSCLC = test system: HOP-18 NSCLC
SK-MEL-2 melanoma = test system: SK-MEL-2 melanoma
SNB-78 CNS = test system: SNB-78 CNS
SNB-19 CNS = test system: SNB-19 CNS
K-562 leukemia = test system: K-562 leukemia
HL-60(TB) leukemia = test system: HL-60(TB) leukemia
LXFL 529 NSCLC = test system: LXFL 529 NSCLC
786-0 renal = test system: 786-0 renal
SF-539 CNS = test system: SF-539 CNS
SNB-75 CNS = test system: SNB-75 CNS
SK-OV-3 ovarian = test system: SK-OV-3 ovarian
COLO 205 colon = test system: COLO 205 colon
RXF 393 renal = test system: RXF 393 renal
UO-31 renal = test system: UO-31 renal
EKVX NSCLC = test system: EKVX NSCLC
NCI-H460 lung = test system: NCI-H460 lung
DMS 114 small cell lung = test system: DMS 114 small cell lung
U251 CNS = test system: U251 CNS
MOLT-4 leukemia = test system: MOLT-4 leukemia
TK-10 renal = test system: TK-10 renal
SK-MEL-28 melanoma = test system: SK-MEL-28 melanoma
A498 renal = test system: A498 renal
DMS 273 small cell lung = test system: DMS 273 small cell lung
RPMI-8226 leukemia = test system: RPMI-8226 leukemia
CCRF-CEM leukemia = test system: CCRF-CEM leukemia
HCT-116 colon = test system: HCT-116 colon
M19-MEL melanoma = test system: M19-MEL melanoma
SK-MEL-5 melanoma = test system: SK-MEL-5 melanoma
M14 melanoma = test system: M14 melanoma
HCC-2998 colon = test system: HCC-2998 colon
OVCAR-4 ovarian = test system: OVCAR-4 ovarian
KM20L2 colon = test system: KM20L2 colon
SF-295 CNS = test system: SF-295 CNS
OVCAR-3 ovarian = test system: OVCAR-3 ovarian
HCT-15 colon = test system: HCT-15 colon
SF-268 CNS = test system: SF-268 CNS
XF 498 CNS = test system: XF 498 CNS
ACHN renal = test system: ACHN renal
HT29 colon = test system: HT29 colon
OVCAR-5 ovarian = test system: OVCAR-5 ovarian
LOX IMVI melanoma = test system: LOX IMVI melanoma
HOP-92 NSCLC = test system: HOP-92 NSCLC
SR leukemia = test system: SR leukemia
NCI-H226 lung = test system: NCI-H226 lung

O=C(O)C1(C(=O)O)CC1
TGI (OVCAR-8 ovarian): > 100 µM
TGI (CAKI-1 renal): > 100000 nM
TGI (HOP-62 NSCLC): > 100 µM
TGI (A549 NSCLC): > 100 µM
TGI (SN12C renal): > 100 µM
TGI (RXF-631 renal): > 100 µM
TGI (NCI-H522 lung): > 100 µM
TGI (UACC-62 melanoma): > 100 µM
TGI (IGROV1 ovarian): > 100 µM
TGI (NCI-H23 lung): > 100 µM
TGI (SW-620 colon): > 100 µM
TGI (KM12 colon): > 100 µM
TGI (DLD-1 colon): > 100 µM
TGI (MALME-3M melanoma): > 100 µM
TGI (UACC-257 melanoma): > 100 µM
TGI (HOP-18 NSCLC): > 100 µM
TGI (SK-MEL-2 melanoma): > 100 µM
TGI (SNB-78 CNS): > 100 µM
TGI (SNB-19 CNS): > 100 µM
TGI (K-562 leukemia): > 100 µM
TGI (HL-60(TB) leukemia): > 100 µM
TGI (LXFL 529 NSCLC): > 100 µM
TGI (786-0 renal): > 100 µM
TGI (SF-539 CNS): > 100 µM
TGI (SNB-75 CNS): > 100 µM
TGI (SK-OV-3 ovarian): > 100 µM
TGI (COLO 205 colon): > 100 µM
TGI (RXF 393 renal): > 100 µM
TGI (UO-31 renal): > 100 µM
TGI (EKVX NSCLC): > 100 µM
TGI (NCI-H460 lung): > 100 µM
TGI (DMS 114 small cell lung): > 100 µM
TGI (U251 CNS): > 100 µM
TGI (MOLT-4 leukemia): > 100 µM
TGI (TK-10 renal): > 100 µM
TGI (SK-MEL-28 melanoma): > 100 µM
TGI (A498 renal): > 100 µM
TGI (DMS 273 small cell lung): > 100 µM
TGI (RPMI-8226 leukemia): > 100 µM
TGI (CCRF-CEM leukemia): > 100 µM
TGI (HCT-116 colon): > 100 µM
TGI (M19-MEL melanoma): > 100 µM
TGI (SK-MEL-5 melanoma): > 100 µM
TGI (M14 melanoma): > 100 µM
TGI (HCC-2998 colon): > 100 µM
TGI (OVCAR-4 ovarian): > 100000 nM
TGI (KM20L2 colon): > 100 µM
TGI (SF-295 CNS): > 100 µM
TGI (OVCAR-3 ovarian): > 100 µM
TGI (HCT-15 colon): > 100 µM
TGI (SF-268 CNS): > 100 µM
TGI (XF 498 CNS): > 100 µM
TGI (ACHN renal): > 100 µM

COc1ccc(NCC#N)cc1
TGI (OVCAR-8 ovarian): > 100 µM
TGI (A549 NSCLC): > 100 µM
TGI (SN12C renal): > 100 µM
TGI (HT29 colon): > 100 µM
TGI (RXF-631 renal): > 100 µM
TGI (NCI-H522 lung): > 100 µM
TGI (UACC-62 melanoma): > 100 µM
TGI (IGROV1 ovarian): > 100 µM
TGI (NCI-H23 lung): > 100 µM
TGI (SW-620 colon): > 100 µM
TGI (KM12 colon): > 100 µM
TGI (DLD-1 colon): > 100 µM
TGI (MALME-3M melanoma): > 100 µM
TGI (OVCAR-5 ovarian): > 100 µM
TGI (UACC-257 melanoma): > 100 µM
TGI (HOP-18 NSCLC): > 100 µM
TGI (SK-MEL-2 melanoma): > 100 µM
TGI (SNB-78 CNS): > 100 µM
TGI (SNB-19 CNS): > 100 µM
TGI (K-562 leukemia): > 100 µM
TGI (HL-60(TB) leukemia): > 100 µM
TGI (LXFL 529 NSCLC): > 100 µM
TGI (786-0 renal): 75.8 µM
TGI (SF-539 CNS): > 100 µM
TGI (SNB-75 CNS): > 100 µM
TGI (SK-OV-3 ovarian): > 100 µM
TGI (COLO 205 colon): > 100 µM
TGI (LOX IMVI melanoma): > 100 µM
TGI (RXF 393 renal): > 100 µM
TGI (UO-31 renal): > 100 µM
TGI (HOP-92 NSCLC): > 100 µM
TGI (EKVX NSCLC): > 100 µM
TGI (NCI-H460 lung): > 100 µM
TGI (DMS 114 small cell lung): > 100 µM
TGI (U251 CNS): > 100 µM
TGI (MOLT-4 leukemia): > 100 µM
TGI (TK-10 renal): > 100 µM
TGI (SK-MEL-28 melanoma): > 100 µM
TGI (A498 renal): > 100 µM
TGI (DMS 273 small cell lung): > 100 µM
TGI (RPMI-8226 leukemia): > 100 µM
TGI (CCRF-CEM leukemia): > 100 µM
TGI (HCT-116 colon): > 100 µM
TGI (M19-MEL melanoma): > 100 µM
TGI (SK-MEL-5 melanoma): > 100 µM
TGI (M14 melanoma): > 100 µM
TGI (HCC-2998 colon): > 100 µM
TGI (KM20L2 colon): > 100 µM
TGI (SF-295 CNS): > 100 µM
TGI (SR leukemia): > 100 µM
TGI (OVCAR-3 ovarian): > 100 µM
TGI (HCT-15 colon): > 100 µM
TGI (SF-268 CNS): > 100 µM
TGI (XF 498 CNS): > 100 µM
TGI (ACHN renal): > 100 µM

Cc1ccc(Nc2nc3c(s2)C(=O)c2ccccc2C3=O)cc1
TGI (OVCAR-8 ovarian): 5.07 µM
TGI (NCI-H226 lung): 33.9 µM
TGI (CAKI-1 renal): 3000 nM
TGI (HOP-62 NSCLC): 20 µM
TGI (A549 NSCLC): 4.86 µM
TGI (SN12C renal): 3.4 µM
TGI (HT29 colon): 11.2 µM
TGI (RXF-631 renal): 3.8 µM
TGI (NCI-H522 lung): 3.25 µM
TGI (UACC-62 melanoma): 3.92 µM
TGI (IGROV1 ovarian): 3.73 µM
TGI (NCI-H23 lung): 4.33 µM
TGI (KM12 colon): 3.44 µM
TGI (DLD-1 colon): 4.26 µM
TGI (MALME-3M melanoma): 3.39 µM
TGI (OVCAR-5 ovarian): 3.5 µM
TGI (UACC-257 melanoma): 3.2 µM
TGI (HOP-18 NSCLC): 3.19 µM
TGI (SK-MEL-2 melanoma): 3.94 µM
TGI (SNB-78 CNS): 5.82 µM
TGI (SNB-19 CNS): 3.33 µM
TGI (K-562 leukemia): 7.19 µM
TGI (HL-60(TB) leukemia): 0.602 µM
TGI (LXFL 529 NSCLC): 3 µM
TGI (786-0 renal): 3.37 µM
TGI (SF-539 CNS): 17.7 µM
TGI (SNB-75 CNS): 5.03 µM
TGI (SK-OV-3 ovarian): 40.1 µM
TGI (COLO 205 colon): 26.9 µM
TGI (LOX IMVI melanoma): 3.11 µM
TGI (UO-31 renal): 4.12 µM
TGI (HOP-92 NSCLC): 14.3 µM
TGI (EKVX NSCLC): 16 µM
TGI (DMS 114 small cell lung): 3.28 µM
TGI (U251 CNS): 3.42 µM
TGI (MOLT-4 leukemia): 3.83 µM
TGI (TK-10 renal): 18.9 µM
TGI (SK-MEL-28 melanoma): 2.99 µM
TGI (A498 renal): 30.9 µM
TGI (DMS 273 small cell lung): 3.75 µM
TGI (RPMI-8226 leukemia): 3.74 µM
TGI (CCRF-CEM leukemia): 5.04 µM
TGI (M19-MEL melanoma): 1.05 µM
TGI (SK-MEL-5 melanoma): 3.43 µM
TGI (M14 melanoma): 3.25 µM
TGI (HCC-2998 colon): 3.58 µM
TGI (OVCAR-4 ovarian): 2890 nM
TGI (KM20L2 colon): 38.9 µM
TGI (SF-295 CNS): 2.99 µM
TGI (OVCAR-3 ovarian): 4.87 µM
TGI (HCT-15 colon): 4.29 µM
TGI (SF-268 CNS): 5.66 µM
TGI (XF 498 CNS): 3.76 µM
TGI (ACHN renal): 3.21 µM
